Source: patent EP0449346B1, “4-Piperidinyl-ergoline derivatives” (PHARMACIA S.p.A., priority 1990, dated 1991)

Test system: rats with unilateral 6-hydroxy dopamine-induced lesion of the dopaminergic nigrostriatal patway
Assay: Turning behaviour in rats: induction of controlateral turnings after a single treatment
Format: in vivo
Text: More in particular, the ergoline derivatives according to the invention are active as antiparkinson agents, owing to their dopaminergic activity. The dopaminergic activity is indicated e.g. by an induction of controlateral turnings in rats with unilateral 6-hydroxy dopamine-induced lesion of the dopaminergic nigrostriatal patway. [According to the principles of N.Ungerstedt et al., Brain Research 24,485 (1970)].

[1] = single treatment, 0.5 mg/Kg s.c., in 6 hours
[2] = single treatment, 0.5 mg/Kg s.c., turning rats / treated rats

Row | SMILES | Number of controlateral turns (X) in 6 hours [1] | Turning rats Treated rats [2] | Number of controlateral turns (X) in 6 hours (rat, in vivo, sc, 1 mg/kg) | Turning rats Treated rats (rat, in vivo, sc, 1 mg/kg)
1 | CN1C(=O)CC(C[C@@H]2C=C3c4cccc5[nH]cc(c45)C[C@H]3N(C)C2)CC1=O [Example 5, 1-Methyl-4-[(6-methylergolen-Δ9,10-8β-yl)methyl]-piperidin-2,6-dione] | 1830 | 5/5 | – | –
2 | CC(C)C[C@H]1C(=O)N2CCC[C@H]2[C@]2(O)O[C@](NC(=O)[C@@H]3C=C4c5cccc6[nH]c(Br)c(c56)C[C@H]4N(C)C3)(C(C)C)C(=O)N12 [Bromocriptine, bromocriptine, reference compound] | – | – | 1920 | 6/9
3 | CN1C[C@H](CC2CC(=O)NC(=O)C2)C=C2c3cccc4[nH]cc(c34)C[C@H]21 [Example 1, 4-[(6-Methylergolen-Δ9,10-8β-yl)methyl]-piperidin-2,6-dione] | 1540 | 4/4 | – | –
